Data: US10448639B2, “Fungicidal pyrazoles” (FMC CORPORATION, priority 2009, dated 2019)
Like-named read-outs stand apart in the source and are kept apart here. Marks after values point to notes of the source that are not given here.

How the values were obtained:
Alternaria solani = assay: Test C: tomato early blight, preventive spray on tomato seedlings, visual disease rating; details: for pest or weed control at 200 µg/mL: Alternaria solani, in Solanum lycopersicum, 168 h; for Test C rating (% disease control) / Test C disease control rating: 100 = 100% disease control; for Test C disease control rating: 0 = no disease control relative to controls
Source text: (§1) General protocol for preparing test suspensions for Tests A-J: the test compounds were first dissolved in acetone in an amount equal to 3% of the final volume and then suspended at the desired concentration (in ppm) in acetone and purified water (50/50 mix by volume) containing 250 ppm of the surfactant Trem® 014 (polyhydric alcohol esters). The resulting test suspensions were then used in Tests A-J. Spraying a 200 ppm test suspension to the point of run-off on the test plants was the equivalent of a rate of 500 g/ha. Unless otherwise indicated, the rating values indicate a 200 ppm test suspension was used. (An asterisk “*” next to the rating value indicates a 40 ppm test suspension was used.)
The test suspension was sprayed to the point of run-off on tomato seedlings. The following day the seedlings were inoculated with a spore suspension of Alternaria solani (the causal agent of tomato early blight) and incubated in a saturated atmosphere at 27° C. for 48 h, and then moved to a growth chamber at 20° C. for 5 days, after which time visual disease ratings were made.

Botrytis cinerea = assay: Test B: tomato Botrytis, preventive spray on tomato seedlings, visual disease rating; details: for pest or weed control at 200 µg/mL: Botrytis cinerea, in Solanum lycopersicum, 120 h; for Test B rating (% disease control) / Test B disease control rating: 100 = 100% disease control; for Test B disease control rating: 0 = no disease control relative to controls
Source text: as §1
The test suspension was sprayed to the point of run-off on tomato seedlings. The following day the seedlings were inoculated with a spore suspension of Botrytis cinerea (the causal agent of tomato Botrytis) and incubated in saturated atmosphere at 20° C. for 48 h, and then moved to a growth chamber at 24° C. for 3 additional days, after which time visual disease ratings were made.

[1] = tested on: Puccinia recondita f. sp. tritici; assay: Test H: wheat leaf rust, curative spray on inoculated wheat seedlings, visual disease rating; details: for pest or weed control at 200 µg/mL: 144 h; for Test H disease control rating: sprayed after inoculation, 0 = no disease control relative to controls; for Test H disease control rating / Test H rating (% disease control): 100 = 100% disease control; for Test H rating (% disease control): 0 = no control relative to controls
[2] = tested on: Puccinia recondita f. sp. tritici; assay: Test I: wheat leaf rust, preventive spray on wheat seedlings, visual disease rating; details: for pest or weed control at 200 µg/mL: 192 h; for Test I rating (% disease control) / Test I disease control rating: 100 = 100% disease control; for Test I disease control rating: sprayed the day before inoculation, 0 = no disease control relative to controls
Septoria nodorum = assay: Test F: Septoria glume blotch, preventive spray on wheat seedlings, visual disease rating; details: for pest or weed control at 200 µg/mL: Parastagonospora nodorum, in Triticum aestivum, 192 h; for Test F rating (% disease control) / Test F disease control rating: 100 = 100% disease control; for Test F disease control rating: 0 = no disease control relative to controls
[3] = tested on: Erysiphe graminis f sp. tritici; assay: Test J: wheat powdery mildew, preventive spray on wheat seedlings, visual disease rating; details: for pest or weed control at 200 µg/mL: Blumeria graminis, in Triticum aestivum, 192 h; for Test J rating (% disease control) / Test J disease control rating: 100 = 100% disease control; for Test J disease control rating: sprayed the day before inoculation, 0 = no disease control relative to controls
Septoria tritici = assay: Test G: wheat leaf blotch, preventive spray on wheat seedlings, visual disease rating; details: wheat leaf blotch, preventive spray; 100 = 100% disease control, 0 = no control
[4] = read-out: Test C disease control rating
[5] = read-out: Test B disease control rating
[6] = read-out: Test H disease control rating
[7] = read-out: Test I disease control rating
[8] = read-out: Test F disease control rating
[9] = read-out: Test J disease control rating
[10] = tomato early blight, preventive spray, 0 = no control
[11] = tomato Botrytis, preventive spray, 0 = no control
[12] = wheat leaf rust, preventive spray, 0 = no control
[13] = Septoria glume blotch on wheat, preventive spray, 0 = no control
[14] = wheat powdery mildew, preventive spray, 0 = no control
[15] = tomato early blight, 0 = no control relative to controls
[16] = tomato Botrytis, 0 = no control relative to controls
[17] = wheat leaf rust, preventive, 0 = no control relative to controls
[18] = Septoria glume blotch, 0 = no control relative to controls
[19] = wheat powdery mildew, 0 = no control relative to controls

Cc1nn(C)c(Nc2c(F)cc(Cl)cc2F)c1-c1ccc(F)cc1Cl [Compound 286, N-(4-chloro-2,6-difluorophenyl)-4-(2-chloro-4-fluorophenyl)-1,3-dimethyl-1H-pyrazole-5-amine]
Test C rating (% disease control), marked * (Alternaria solani; tomato early blight, rating marked with asterisk (*), meaning not given): 85* % | Test B rating (% disease control), marked * (Botrytis cinerea; tomato Botrytis, rating marked with asterisk (*), meaning not given): 98* % | Test H rating (% disease control), marked * ([1]; wheat leaf rust, curative, rating marked with asterisk (*), meaning not given): 100* % | Test I rating (% disease control), marked * ([2]; wheat leaf rust, preventive, rating marked with asterisk (*), meaning not given): 100* % | Test F rating (% disease control), marked * (Septoria nodorum; Septoria glume blotch, rating marked with asterisk (*), meaning not given): 60* % | Test J rating (% disease control), marked * ([3]; wheat powdery mildew, rating marked with asterisk (*), meaning not given): 100* %

Cc1nn(C)c(C(O)c2ccc(F)cc2F)c1-c1ccc(F)cc1Cl (stereo not drawn) [Compound 351, 4-(2-chloro-4-fluorophenyl)-α-(2,4-difluorophenyl)-1,3-dimethyl-1H-pyrazole-5-methanol]
pest or weed control at 200 µg/mL (Alternaria solani; [4]): 99% | pest or weed control at 200 µg/mL (Botrytis cinerea; [5]): 100% | pest or weed control at 200 µg/mL [1, 6]: 96% | pest or weed control at 200 µg/mL [2, 7]: 100% | pest or weed control at 200 µg/mL (Septoria nodorum; [8]): 92% | pest or weed control at 200 µg/mL [3, 9]: 99%

Cc1nn(C)c(Nc2ccc(Cl)c(Cl)c2)c1-c1c(F)cc(C#N)cc1F [compound 123]
Test C rating (% disease control) (Alternaria solani; [10]): 0% | Test B rating (% disease control) (Botrytis cinerea; [11]): 99% | Test I rating (% disease control) [2, 12]: 80% | Test F rating (% disease control) (Septoria nodorum; [13]): 40% | Test G rating (% disease control) (Septoria tritici): 99% | Test J rating (% disease control) [3, 14]: 0%

Cc1nn(C)c(Oc2ccc(C#N)cc2F)c1-c1ccc(F)cc1Br [Compound 284, 4-[[4-(2-bromo-4-fluorophenyl)-1,3-dimethyl-1H-pyrazol-5-yl]oxy]-3-fluorobenzonitrile]
pest or weed control at 200 µg/mL (Alternaria solani; read-out: Test C rating (% disease control)): 99% | pest or weed control at 200 µg/mL (Botrytis cinerea; read-out: Test B rating (% disease control)): 99% | pest or weed control at 200 µg/mL ([1]; read-out: Test H rating (% disease control)): 28% | pest or weed control at 200 µg/mL ([2]; read-out: Test I rating (% disease control)): 100% | pest or weed control at 200 µg/mL (Septoria nodorum; read-out: Test F rating (% disease control)): 100% | pest or weed control at 200 µg/mL ([3]; read-out: Test J rating (% disease control)): 100%

Cc1nn(C)c(Nc2c(F)cc(Cl)cc2Cl)c1-c1ccc(F)cc1Cl [Compound 367, 4-(2-chloro-4-fluorophenyl)-N-(2,4-dichloro-6-fluorophenyl)-1,3-dimethyl-1H-pyrazol-5-amine]
pest or weed control at 200 µg/mL (Alternaria solani; [4]): 100% | pest or weed control at 200 µg/mL (Botrytis cinerea; [5]): 100% | pest or weed control at 200 µg/mL [1, 6]: 100% | pest or weed control at 200 µg/mL [2, 7]: 100% | pest or weed control at 200 µg/mL (Septoria nodorum; [8]): 100% | pest or weed control at 200 µg/mL [3, 9]: 100%

Cc1nn(C)c(C(O)c2ccc(F)cc2)c1-c1ccc(F)cc1Cl (racemic) [compound 350]
Test C disease control rating (Alternaria solani; tomato early blight): 9% | Test B disease control rating (Botrytis cinerea; tomato Botrytis): 99% | Test H disease control rating ([1]; wheat leaf rust): 9% | Test I disease control rating ([2]; wheat leaf rust): 96% | Test F disease control rating (Septoria nodorum; Septoria glume blotch on wheat): 0% | Test J disease control rating ([3]; wheat powdery mildew): 0%

Cc1nn(C)c(Nc2c(F)cc(F)cc2Cl)c1-c1ccc(Cl)cc1Cl [compound 391]
Test C disease control rating (Alternaria solani; tomato early blight): 99% | Test B disease control rating (Botrytis cinerea; tomato Botrytis): 100% | Test H disease control rating ([1]; wheat leaf rust): 31% | Test I disease control rating ([2]; wheat leaf rust): 99% | Test F disease control rating (Septoria nodorum; Septoria glume blotch on wheat): 73% | Test J disease control rating ([3]; wheat powdery mildew): 99%

Cc1nn(C)c(Nc2c(Cl)cc(F)cc2Cl)c1-c1ccc(F)cc1Cl [Compound 369, 4-(2-chloro-4-fluorophenyl)-N-(2,6-dichloro-4-fluorophenyl)-1,3-dimethyl-1H-pyrazol-5-amine]
pest or weed control at 200 µg/mL (Alternaria solani; [4]): 66% | pest or weed control at 200 µg/mL (Botrytis cinerea; [5]): 100% | pest or weed control at 200 µg/mL [1, 6]: 17% | pest or weed control at 200 µg/mL [2, 7]: 100% | pest or weed control at 200 µg/mL (Septoria nodorum; [8]): 0% | pest or weed control at 200 µg/mL [3, 9]: 99%

Cc1nn(C)c(Nc2ccc(Cl)cc2Cl)c1-c1ccc(F)cc1Cl [compound 299]
Test C rating (% disease control) (Alternaria solani; [15]): 95% | Test B rating (% disease control) (Botrytis cinerea; [16]): 100% | Test H rating (% disease control) ([1]; wheat leaf rust, curative): 41% | Test I rating (% disease control) [2, 17]: 100% | Test F rating (% disease control) (Septoria nodorum; [18]): 51% | Test J rating (% disease control) [3, 19]: 100%

Cc1nn(C)c(Nc2ccc(Cl)c(F)c2)c1-c1c(F)cc(F)cc1F [compound 14]
Test C rating (% disease control) (Alternaria solani; [10]): 0% | Test B rating (% disease control) (Botrytis cinerea; [11]): 98% | Test I rating (% disease control) [2, 12]: 99% | Test F rating (% disease control) (Septoria nodorum; [13]): 0% | Test G rating (% disease control) (Septoria tritici): 99% | Test J rating (% disease control) [3, 14]: 98%

COc1cccc(Nc2c(-c3ccc(F)cc3F)c(C)nn2C)c1Cl [compound 281]
Test C rating (% disease control) (Alternaria solani; [15]): 44% | Test B rating (% disease control) (Botrytis cinerea; [16]): 98% | Test H rating (% disease control) ([1]; wheat leaf rust, curative): 0% | Test I rating (% disease control) [2, 17]: 94% | Test F rating (% disease control) (Septoria nodorum; [18]): 0% | Test J rating (% disease control) [3, 19]: 98%
